Data published in PubChem BioAssay (NCI).
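48-hour exposure; five concentrations; linearly interpolated endpoints. The concentration for full growth arrest is given as TGI.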

What was measured:
Assay in all cases: growth of human tumour cells (NCI), 48 h
IGROV1 ovarian = system: IGROV1 ovarian
SW-620 colon = system: SW-620 colon
HOP-92 NSCLC = system: HOP-92 NSCLC
COLO 205 colon = system: COLO 205 colon
OVCAR-4 ovarian = system: OVCAR-4 ovarian
OVCAR-8 ovarian = system: OVCAR-8 ovarian
SK-MEL-5 melanoma = system: SK-MEL-5 melanoma
CAKI-1 renal = system: CAKI-1 renal
SN12C renal = system: SN12C renal
U251 CNS = system: U251 CNS
RXF 393 renal = system: RXF 393 renal
NCI-H226 lung = system: NCI-H226 lung
EKVX NSCLC = system: EKVX NSCLC
HL-60(TB) leukemia = system: HL-60(TB) leukemia
DLD-1 colon = system: DLD-1 colon
UACC-257 melanoma = system: UACC-257 melanoma
SK-MEL-28 melanoma = system: SK-MEL-28 melanoma
HOP-18 NSCLC = system: HOP-18 NSCLC
MALME-3M melanoma = system: MALME-3M melanoma
SNB-78 CNS = system: SNB-78 CNS
HT29 colon = system: HT29 colon
HCT-15 colon = system: HCT-15 colon
KM20L2 colon = system: KM20L2 colon
MOLT-4 leukemia = system: MOLT-4 leukemia
CCRF-CEM leukemia = system: CCRF-CEM leukemia
SF-539 CNS = system: SF-539 CNS
SF-295 CNS = system: SF-295 CNS
HCC-2998 colon = system: HCC-2998 colon
SNB-75 CNS = system: SNB-75 CNS
RXF-631 renal = system: RXF-631 renal
A498 renal = system: A498 renal
SK-MEL-2 melanoma = system: SK-MEL-2 melanoma
RPMI-8226 leukemia = system: RPMI-8226 leukemia
ACHN renal = system: ACHN renal
DMS 273 small cell lung = system: DMS 273 small cell lung
DMS 114 small cell lung = system: DMS 114 small cell lung
OVCAR-5 ovarian = system: OVCAR-5 ovarian
NCI-H460 lung = system: NCI-H460 lung
M14 melanoma = system: M14 melanoma
SNB-19 CNS = system: SNB-19 CNS
XF 498 CNS = system: XF 498 CNS
HCT-116 colon = system: HCT-116 colon
KM12 colon = system: KM12 colon
TK-10 renal = system: TK-10 renal
SR leukemia = system: SR leukemia
LXFL 529 NSCLC = system: LXFL 529 NSCLC
LOX IMVI melanoma = system: LOX IMVI melanoma
A549 NSCLC = system: A549 NSCLC
SF-268 CNS = system: SF-268 CNS
NCI-H23 lung = system: NCI-H23 lung
K-562 leukemia = system: K-562 leukemia
UO-31 renal = system: UO-31 renal
SK-OV-3 ovarian = system: SK-OV-3 ovarian
UACC-62 melanoma = system: UACC-62 melanoma
786-0 renal = system: 786-0 renal
M19-MEL melanoma = system: M19-MEL melanoma
OVCAR-3 ovarian = system: OVCAR-3 ovarian
HOP-62 NSCLC = system: HOP-62 NSCLC
NCI-H522 lung = system: NCI-H522 lung

CC(=O)NC1C(O)CC(OCCCSCCN)(C(=O)O)OC1C(O)C(O)CO (centres undefined)
TGI (IGROV1 ovarian): > 100 µM | TGI (SW-620 colon): > 100 µM | TGI (HOP-92 NSCLC): > 100 µM | TGI (COLO 205 colon): > 100 µM | TGI (OVCAR-4 ovarian): > 100 µM | TGI (OVCAR-8 ovarian): > 100 µM | TGI (SK-MEL-5 melanoma): > 100 µM | TGI (CAKI-1 renal): > 100 µM | TGI (SN12C renal): > 100 µM | TGI (U251 CNS): > 100 µM | TGI (RXF 393 renal): > 100 µM | TGI (NCI-H226 lung): > 100 µM | TGI (EKVX NSCLC): > 100 µM | TGI (HL-60(TB) leukemia): > 100 µM | TGI (DLD-1 colon): > 100 µM | TGI (UACC-257 melanoma): > 100 µM | TGI (SK-MEL-28 melanoma): > 100 µM | TGI (HOP-18 NSCLC): > 100 µM | TGI (MALME-3M melanoma): > 100 µM | TGI (SNB-78 CNS): > 100 µM | TGI (HT29 colon): > 100 µM | TGI (HCT-15 colon): > 100 µM | TGI (KM20L2 colon): > 100 µM | TGI (MOLT-4 leukemia): > 100 µM | TGI (CCRF-CEM leukemia): > 100 µM | TGI (SF-539 CNS): > 100 µM | TGI (SF-295 CNS): > 100 µM | TGI (HCC-2998 colon): > 100 µM | TGI (SNB-75 CNS): > 100 µM | TGI (RXF-631 renal): > 100 µM | TGI (A498 renal): > 100 µM | TGI (SK-MEL-2 melanoma): > 100 µM | TGI (RPMI-8226 leukemia): > 100 µM | TGI (ACHN renal): > 100 µM | TGI (DMS 273 small cell lung): > 100 µM | TGI (DMS 114 small cell lung): > 100 µM | TGI (OVCAR-5 ovarian): > 100 µM | TGI (NCI-H460 lung): > 100 µM | TGI (M14 melanoma): > 100 µM | TGI (SNB-19 CNS): > 100 µM | TGI (XF 498 CNS): > 100 µM | TGI (HCT-116 colon): > 100 µM | TGI (KM12 colon): > 100 µM | TGI (TK-10 renal): > 100 µM | TGI (SR leukemia): > 100 µM | TGI (LXFL 529 NSCLC): > 100 µM | TGI (LOX IMVI melanoma): > 100 µM | TGI (A549 NSCLC): > 100 µM | TGI (SF-268 CNS): > 100 µM | TGI (NCI-H23 lung): > 100 µM

O=C1NC(=O)C2C1c1[nH]c3ccccc3c1C1CCCC12 (centres undefined)
TGI (IGROV1 ovarian): > 100 µM | TGI (SW-620 colon): > 100 µM | TGI (COLO 205 colon): 32.1 µM | TGI (K-562 leukemia): > 100 µM | TGI (OVCAR-4 ovarian): > 100 µM | TGI (OVCAR-8 ovarian): 64.5 µM | TGI (SK-MEL-5 melanoma): 8.66 µM | TGI (SN12C renal): > 100 µM | TGI (U251 CNS): 22.6 µM | TGI (UO-31 renal): > 100 µM | TGI (RXF 393 renal): 24.4 µM | TGI (NCI-H226 lung): 51.7 µM | TGI (EKVX NSCLC): > 100 µM | TGI (DLD-1 colon): > 100 µM | TGI (SK-MEL-28 melanoma): > 100 µM | TGI (HOP-18 NSCLC): 83.8 µM | TGI (MALME-3M melanoma): > 100 µM | TGI (SNB-78 CNS): > 100 µM | TGI (HT29 colon): > 100 µM | TGI (SK-OV-3 ovarian): 45.4 µM | TGI (UACC-62 melanoma): > 100 µM | TGI (HCT-15 colon): > 100 µM | TGI (786-0 renal): > 100 µM | TGI (M19-MEL melanoma): > 100 µM | TGI (MOLT-4 leukemia): > 100 µM | TGI (CCRF-CEM leukemia): > 100 µM | TGI (SF-539 CNS): 11.8 µM | TGI (SF-295 CNS): 6.56 µM | TGI (HCC-2998 colon): > 100 µM | TGI (SNB-75 CNS): 6.29 µM | TGI (RXF-631 renal): > 100 µM | TGI (A498 renal): 26.6 µM | TGI (RPMI-8226 leukemia): > 100 µM | TGI (ACHN renal): > 100 µM | TGI (DMS 273 small cell lung): 12.6 µM | TGI (DMS 114 small cell lung): 29.5 µM | TGI (OVCAR-5 ovarian): > 100 µM | TGI (NCI-H460 lung): > 100 µM | TGI (M14 melanoma): > 100 µM | TGI (SNB-19 CNS): > 100 µM | TGI (XF 498 CNS): 6.85 µM | TGI (KM12 colon): > 100 µM | TGI (TK-10 renal): > 100 µM | TGI (SR leukemia): > 100 µM | TGI (LXFL 529 NSCLC): > 100 µM | TGI (LOX IMVI melanoma): > 100 µM | TGI (A549 NSCLC): > 100 µM | TGI (SF-268 CNS): 39.1 µM | TGI (NCI-H23 lung): > 100 µM | TGI (OVCAR-3 ovarian): 5.64 µM

CCOC(=O)C(=O)Nc1cccc(Cl)c1C
TGI (IGROV1 ovarian): > 100 µM | TGI (SW-620 colon): > 100 µM | TGI (HOP-92 NSCLC): > 100 µM | TGI (COLO 205 colon): > 100 µM | TGI (K-562 leukemia): > 100 µM | TGI (OVCAR-4 ovarian): > 100 µM | TGI (OVCAR-8 ovarian): > 100 µM | TGI (SK-MEL-5 melanoma): > 100 µM | TGI (CAKI-1 renal): > 100 µM | TGI (SN12C renal): > 100 µM | TGI (U251 CNS): > 100 µM | TGI (UO-31 renal): > 100 µM | TGI (RXF 393 renal): > 100 µM | TGI (NCI-H226 lung): > 100 µM | TGI (EKVX NSCLC): > 100 µM | TGI (HL-60(TB) leukemia): > 100 µM | TGI (DLD-1 colon): > 100 µM | TGI (UACC-257 melanoma): > 100 µM | TGI (SK-MEL-28 melanoma): > 100 µM | TGI (HOP-18 NSCLC): > 100 µM | TGI (MALME-3M melanoma): > 100 µM | TGI (SNB-78 CNS): > 100 µM | TGI (HT29 colon): > 100 µM | TGI (SK-OV-3 ovarian): > 100 µM | TGI (UACC-62 melanoma): > 100 µM | TGI (HCT-15 colon): > 100 µM | TGI (786-0 renal): > 100 µM | TGI (M19-MEL melanoma): > 100 µM | TGI (MOLT-4 leukemia): > 100 µM | TGI (CCRF-CEM leukemia): > 100 µM | TGI (SF-539 CNS): > 100 µM | TGI (SF-295 CNS): > 100 µM | TGI (HCC-2998 colon): > 100 µM | TGI (HOP-62 NSCLC): > 100 µM | TGI (RXF-631 renal): > 100 µM | TGI (SK-MEL-2 melanoma): > 100 µM | TGI (RPMI-8226 leukemia): > 100 µM | TGI (ACHN renal): > 100 µM | TGI (DMS 114 small cell lung): > 100 µM | TGI (OVCAR-5 ovarian): > 100 µM | TGI (NCI-H460 lung): > 100 µM | TGI (NCI-H522 lung): > 100 µM | TGI (M14 melanoma): > 100 µM | TGI (SNB-19 CNS): > 100 µM | TGI (XF 498 CNS): > 100 µM | TGI (HCT-116 colon): > 100 µM | TGI (KM12 colon): > 100 µM | TGI (TK-10 renal): > 100 µM | TGI (LXFL 529 NSCLC): > 100 µM | TGI (LOX IMVI melanoma): > 100 µM | TGI (A549 NSCLC): > 100 µM | TGI (SF-268 CNS): > 100 µM | TGI (NCI-H23 lung): > 100 µM | TGI (OVCAR-3 ovarian): > 100 µM
